According to article PMC12221356, “A repertoire of visible light–sensitive opsins in the deep-sea hydrothermal vent shrimp Rimicaris hybisae” (The Journal of Biological Chemistry, 2025):
Numbering of substitutions follows the chain as printed.

Legend:
[1] = biological target: T1, RhOpn5 (Rimicaris hybisae, UniProt Z9SF72QZI5); assay: UV-visible absorption spectroscopy of purified pigment; assay type: binding; conditions: covalent (Schiff base, Lys296); pH 8.0 and 6.5; 0 °C; mutation in bovine rhodopsin numbering
T1 construct: 178 C-terminal residues truncated, C-terminal Rho1D4 tag (ETSQVAPA), human-codon optimized, HEK293T; transcriptome reads SRA SRP339896
T1 sequence (Z9SF72QZI5 1-407 E336Q): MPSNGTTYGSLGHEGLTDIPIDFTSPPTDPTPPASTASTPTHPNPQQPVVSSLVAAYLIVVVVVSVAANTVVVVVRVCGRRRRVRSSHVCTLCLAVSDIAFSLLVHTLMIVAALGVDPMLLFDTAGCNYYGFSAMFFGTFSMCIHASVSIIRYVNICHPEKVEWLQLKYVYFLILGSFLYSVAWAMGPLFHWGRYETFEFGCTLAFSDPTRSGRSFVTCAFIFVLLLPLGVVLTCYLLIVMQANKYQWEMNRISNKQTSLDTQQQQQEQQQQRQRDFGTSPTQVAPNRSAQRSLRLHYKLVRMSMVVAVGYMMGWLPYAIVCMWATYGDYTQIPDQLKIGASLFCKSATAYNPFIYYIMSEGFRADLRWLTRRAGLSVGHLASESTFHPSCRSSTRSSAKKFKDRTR

[2] = biological target: T2, RhOpn5 (Rimicaris hybisae, UniProt Z9SF72QZI5); assay: absorption spectroscopy and HPLC of retinal in purified pigment; assay type: binding; conditions: covalent (Schiff base, Lys296); dark state; 0 °C
T2 construct: 178 C-terminal residues truncated, C-terminal Rho1D4 tag (ETSQVAPA), human-codon optimized, HEK293T; transcriptome reads SRA SRP339896
T2 sequence (Z9SF72QZI5 1-407): T1 sequence (Z9SF72QZI5 1-407 E336Q) with Q336E

[3] = biological target: T3, RhOpn5 (Rimicaris hybisae, UniProt Z9SF72QZI5, E196Q, form not given); assay: UV-visible absorption spectroscopy of purified pigment; assay type: binding; conditions: covalent (Schiff base, Lys296); pH 8.0 and 6.5; 0 °C; mutation in bovine rhodopsin numbering
T3 construct: 178 C-terminal residues truncated, C-terminal Rho1D4 tag (ETSQVAPA), human-codon optimized, HEK293T; transcriptome reads SRA SRP339896
T3 sequence (Z9SF72QZI5 1-407 E196Q): T1 sequence (Z9SF72QZI5 1-407 E336Q) with E196Q, Q336E

[4] = biological target: T4, RhPeropsin (Rimicaris hybisae, UniProt Z9VFR8UU34); assay: HPLC of retinal isomers after irradiation; assay type: biochemical; conditions: covalent (Schiff base, Lys296); photoproduct under yellow light (>500 nm); 0 °C
T4 construct: C-terminal Rho1D4 tag (ETSQVAPA), human-codon optimized, expressed in HEK293T, no truncation stated; transcriptome reads SRA SRP339896
T4 sequence (Z9VFR8UU34 1-341): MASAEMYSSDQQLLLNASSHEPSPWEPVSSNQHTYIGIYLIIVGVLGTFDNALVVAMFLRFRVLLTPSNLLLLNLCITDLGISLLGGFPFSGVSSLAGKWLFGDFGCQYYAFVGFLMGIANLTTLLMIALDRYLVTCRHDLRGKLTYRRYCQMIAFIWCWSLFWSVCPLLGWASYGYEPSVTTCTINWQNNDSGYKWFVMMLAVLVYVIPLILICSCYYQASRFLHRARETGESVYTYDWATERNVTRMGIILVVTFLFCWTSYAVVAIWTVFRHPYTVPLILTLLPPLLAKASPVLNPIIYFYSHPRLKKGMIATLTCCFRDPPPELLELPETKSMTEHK

[5] = biological target: T5, RhOpn5 (Rimicaris hybisae, UniProt Z9SF72QZI5, D98N, form not given); assay: UV-visible absorption spectroscopy of purified pigment; assay type: binding; conditions: covalent (Schiff base, Lys296); pH 8.0 and 6.5; 0 °C; mutation in bovine rhodopsin numbering; counterion mutant
T5 construct: 178 C-terminal residues truncated, C-terminal Rho1D4 tag (ETSQVAPA), human-codon optimized, HEK293T; transcriptome reads SRA SRP339896
T5 sequence (Z9SF72QZI5 1-407 D98N): T1 sequence (Z9SF72QZI5 1-407 E336Q) with D98N, Q336E

[6] = biological target: T6, RhOpn5 (Rimicaris hybisae, UniProt Z9SF72QZI5, E199Q, form not given); assay: as above; assay type: binding; conditions: covalent (Schiff base, Lys296); pH 8.0 and 6.5; 0 °C; mutation in bovine rhodopsin numbering
T6 construct: 178 C-terminal residues truncated, C-terminal Rho1D4 tag (ETSQVAPA), human-codon optimized, HEK293T; transcriptome reads SRA SRP339896
T6 sequence (Z9SF72QZI5 1-407 E199Q): T1 sequence (Z9SF72QZI5 1-407 E336Q) with E199Q, Q336E

[7] = biological target: T2, RhOpn5; assay: absorption spectroscopy and HPLC of retinal in purified pigment; assay type: biochemical; conditions: covalent (Schiff base, Lys296); photoproduct under yellow light (>480 nm); 0 °C
[8] = biological target: T4, RhPeropsin; assay: as above; assay type: biochemical; conditions: covalent (Schiff base, Lys296); dark state; photoisomerized under yellow light (>500 nm); 0 °C

Row | Compound | UV-visible absorption spectroscopy of purified pigment [1] | absorption spectroscopy and HPLC of retinal in purified pigment [2] | UV-visible absorption spectroscopy of purified pigment [3] | HPLC of retinal isomers after irradiation [4] | UV-visible absorption spectroscopy of purified pigment [5] | UV-visible absorption spectroscopy of purified pigment [6] | absorption spectroscopy and HPLC of retinal in purified pigment [7] | absorption spectroscopy and HPLC of retinal in purified pigment [8]
1 | CC1=C(/C=C/C(C)=C/C=C\C(C)=C\C=O)C(C)(C)CCC1 [11-cis-retinal] | the E179Q, E182Q, and E286Q mutants did not show pH-dependent spectral changes | RhOpn5 forms a blue light–sensitive pigment binding 11-cis-retinal in the resting state | the E179Q, E182Q, and E286Q mutants did not show pH-dependent spectral changes | RhPeropsin converts all-trans-retinal to 11-cis-retinal upon visible light absorption | the D83N mutant showed a significant pH-dependent change, with a small peak in the visible | the E179Q, E182Q, and E286Q mutants did not show pH-dependent spectral changes | – | –
2 | CC1=C(/C=C/C(C)=C/C=C/C(C)=C/C=O)C(C)(C)CCC1 [all-trans-retinal] | – | – | – | – | – | – | accompanied by the conversion from 11-cis- to all-trans-retinal | RhPeropsin exclusively binds all-trans-retinal in the dark and produces 11-cis-retinal from all-trans-retinal
